Experimental findings from US7132417B2, “2-phenyl-1-[4-(2-aminoethoxy)-benzyl]-indoles as estrogenic agents” (Wyeth, priority 1996, dated 2006) are described below.

The subject of one assay is Ishikawa cells. The experiment in a line: Ishikawa cell alkaline phosphatase assay. The class given is cell-based, human. As to conditions: for EC50: reference standards, read-out: ED50 values (95% C.I.), estrogenic activity by the alkaline phosphatase method; for % Activation: compound alone, percent of response related to 1 nM 17β-estradiol; for % Activation with 1 nM 17β-estradiol: compound + 1 nM 17β-estradiol (antiestrogen test). The procedure: Cells were treated for 48 h prior to assay. […] Sample population for at each dose was n=8. […] Plates are placed at -80° C. for a minimum of 15 minutes. Plates are thawed at 37° C. followed by the addition of 150 μL of 0.1 M Tris-HCl, pH 9.8, containing 4 mM para-nitrophenylphosphate (pNPP) to each well (final concentration, 3 mM pNPP). Absorbance and slope calculations were made using the […] Application program (Bio-Tek Instruments, Inc., Winooski, Vt.). […] The four listed in the following were used as reference standards: A description of these methods is described by Holinka, […]., Kuramoto, H. and Gurpide, E. (1986) Effects of steroid hormones and antisteroids on alkaline phosphatase activity in human endometrial cancer cells (Ishikawa Line). Cancer Research, 46:2771-2774, and by […]. and […] simple and sensitive microtiter plate estrogen bioassay based on stimulation alkaline phosphatase in Ishikawa cells; […] Endocrinology, 6:2757-2762.

Assay [1] deals with Female Sprague Dawley CD rats, ovx. The experiment in a line: 6-week ovariectomized rat model. The class given is in vivo. The note with it: 2 μg/rat, s.c., following 6 weeks of treatment, mean ± SEM. From the text:
Method No. 20 6-Week Ovariectomized Rat Model
Female Sprague Dawley CD rats, ovx or sham ovx, were obtained 1 day after surgery from Taconic Farm (weight range 240–275 g). They were housed 3 or 4 rats/cage in a room on a 14/10 (light/dark) schedule and provided with food (Purina 500 rat chow) and water ad libitum. Treatment for all studies began 1 day after the animals arrival and dosed 5 or 7 days per week as indicated for 6 weeks. A group of age matched sham operated rats not receiving any treatment served as an intact, estrogen replete control group for each study. All treatments were prepared in 1% tween 80 in normal saline at defined concentrations so that the treatment volume was 0.1 mL/100 g body weight. 17-beta estradiol was dissolved in corn oil (20 uG/mL) and delivered subcutaneously, 0.1 mL/rat. All dosages were adjusted at three week intervals according to group mean body weight measurements.
Five weeks after the initiation of treatment and one week prior to the termination of the study, each rat was evaluated for bone mineral density (BMD). The BMD's of the proximal tibiae (PT) and fourth lumbar vertabrae (L4) were measured in anesthetized rats using a dual energy X-ray absorptiometer (Eclipse XR-26, Norland Corp. Ft. Atkins, Wis.). […] Total cholesterol is determined using a Boehringer-Mannheim Hitachi 911 clinical analyzer using the Cholesterol/HP kit. […]

Assay [2] relates to Immature Sprague-Dawley rats. In words: Rat uterotrophic/antiuterotrophic bioassay. The class given is in vivo. As to conditions: daily ip; for Uterine wt mg 100 uG cmpd + 1 uG 17β-estradiol: 100 uG compound + 1 uG 17β-estradiol; for Uterine wt mg 100 uG cmpd: 100 uG compound, immature female rats, uterine wet weight. The procedure:
Method No. 19 Rat Uterotrophic/Antiuterotrophic Bioassay
The estrogenic and antiestrogenic properties of the compounds were determined in an immature rat uterotrophic assay (4 day) that (as described previously by L. J. Black and R. L. Goode, Life Sciences, 26, 1453(1980)). Immature Sprague-Dawley rats (female, 18 days old) were tested in groups of six. […] On day 4 the animals were sacrificed by CO2 asphyxiation and their uteri were removed and stripped of excess lipid, any fluid removed and the wet weight determined. A small section of one horn was submitted for histology and the remainder used to isolate total RNA in order to evaluate complement component 3 gene expression.

Assay [3] deals with T1, estrogen receptor (Homo sapiens, UniProt P03372).
T1 sequence (P03372 1-595): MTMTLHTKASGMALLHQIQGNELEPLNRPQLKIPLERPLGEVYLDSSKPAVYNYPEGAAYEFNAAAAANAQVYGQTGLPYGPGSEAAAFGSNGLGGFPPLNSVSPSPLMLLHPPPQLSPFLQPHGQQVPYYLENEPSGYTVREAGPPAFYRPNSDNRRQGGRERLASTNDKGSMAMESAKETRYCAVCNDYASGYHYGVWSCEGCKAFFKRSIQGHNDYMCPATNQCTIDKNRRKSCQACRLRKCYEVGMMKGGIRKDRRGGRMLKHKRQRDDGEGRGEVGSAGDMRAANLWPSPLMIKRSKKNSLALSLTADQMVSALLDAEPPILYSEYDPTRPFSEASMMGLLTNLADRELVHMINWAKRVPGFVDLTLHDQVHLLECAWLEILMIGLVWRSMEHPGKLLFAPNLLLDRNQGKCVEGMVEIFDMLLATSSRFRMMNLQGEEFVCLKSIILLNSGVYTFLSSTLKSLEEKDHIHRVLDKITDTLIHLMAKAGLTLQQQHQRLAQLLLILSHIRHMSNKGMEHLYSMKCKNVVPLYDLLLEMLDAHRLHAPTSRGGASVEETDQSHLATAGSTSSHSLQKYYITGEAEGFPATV
The experiment in a line: 2X VIT ERE infection (luciferase) assay. The class given is cell-based. Details: expressed in transfected cells; host or cells: Chinese Hamster Ovary cells (CHO), stably transfected. As to conditions: for Infection Luciferase Activity 1 uM + 17β estradiol: 1 uM compound + 1 nM 17β-estradiol (test for estrogen antagonism); for Infection Luciferase Activity 1 uM: 1 uM compound, percentage of activity as compared to 17β-estradiol. The procedure:
Method No. 18 2X VIT ERE Infection Assay Cell Maintenance and Treatment
Chinese Hamster Ovary cells (CHO) which had been stably transfected with the human estrogen receptor were maintained in DMEM+10% fetal bovine serum (FBS). 48 h prior to treatment the growth medium was replaced with DMEM lacking phenol red +10% dextran coated charcoal stripped FBS (treatment medium). Cells were plated at a density of 5000 cells/well in 96-well plates containing 200 µL of medium/well.
Reporter DNA (Promega plasmid pGL2 containing two tandem copies of the vitellogenin ERE in front of the minimal thymidine kinase promoter driving the luciferase gene) was combined with the B-galactosidase expression plasmid pCH110 (Pharmacia) and carrier DNA (pTZ18U) in the following ratio:
20 uL of this mixture was added to each well of cells and remained on the cells for 16 h. […] Each treatment condition was performed on 8 wells (n=8) which were incubated for 24 h prior to the luciferase assay.
After removing the PBS, 25 uL of Promega lysis buffer was added to each well and allowed to stand at room temperature for 15 min, followed by 15 min at −80° C. and 15 min at 37° C. 20 uL of lysate was transferred to an opaque 96 well plate for luciferase activity evaluation and the remaining lysate (5 uL) was used for the B-galactosidase activity evaluation (normalize transfection). The luciferan substrate (Promega) was added in 100 uL aliquots to each well automatically by the luminometer and the light produced (relative light units) was read 10 seconds after addition.
To the remaining 5 uL of lysate 45 uL of PBS was added. Then 50 uL of Promega B-galactosidase 2× assay buffer was added, mixed well and incubated at 37° C. for 1 hour. A plate containing a standard curve (0.1 to 1.5 milliunits in triplicate) was set up for each experimental run. The plates were analyzed on a Molecular Devices spectrophotometric plate reader at 410 nm. The optical densities for the unknown were converted to milliunits of activity by mathematical extrapolation from the standard curve.
The luciferase data was generated as relative light units (RLUs) accumulated during a 10 second measurement and automatically transferred to a JMP (SAS Inc) file where background RLUs were subtracted. The B-galactosidase values were automatically imported into the file and these values were divided into the RLUs to normalize the data. The mean and standard deviations were determined from a n=8 for each treatment. […] These techniques are described by Tzukerman, M. T., Esty, A., Santiso-Mere, D., Danielian, P., Parker, M. G., Stein, R. B., Pike, J. W. and McDonnel, D. P. (1994).

In assay [4] the target is T1, estrogen receptor. The experiment in a line: In vitro estrogen receptor binding assay ([3H]-17β-estradiol competition). The arrangement: expressed in transfected cells; host or cells: CHO cells (100,000 g cytosol). As to conditions: read-out: Receptor Binding IC50's. The procedure:
In Vitro Estrogen Receptor Binding Assay
CHO cells overexpressing the estrogen receptor were grown in 150 mm^2 dishes in DMEM+10% dextran coated charcoal, stripped fetal bovine serum. The plates were washed twice with PBS and once with 10 mM Tris-HCl, pH 7.4, 1 mM EDTA. Cells were harvested by scraping the surface and then the cell suspension was placed on ice. Cells were disrupted with a hand-held motorized tissue grinder using two, 10-second bursts. […] The cytosol was then frozen and stored at −80° C. Protein concentration of the cytosol was estimated using the BCA assay with reference standard protein.
100 uG/100 uL of the receptor preparation was aliquoted per well. […] The plate was incubated at room temperature for 2.5 h. […] 200 uL of the supernatant solution was then removed for scintillation counting. Samples were counted to 2% or 10 minutes, whichever occurs first. […] Also, wells containing radioactivity but no cytosol were processed with charcoal to estimate unremovable DPM of [^3H]
Counts per minute (CPM) of radioactivity were automatically converted to disintegrated per minute (DPM) by the Beckman LS 7500 Scintillation Counter using a set of quenched standards to generate a H No. for each sample.
For the generation of IC50 curves, % binding is plotted vs compound. […] For a description of these methods, see Hulme, E. C., ed. […] Receptor-Ligand Interactions: A Practical Approach. IRL Press, New York. (see especially chapter 8).

`C[C@]12CC[C@@H]3c4ccc(O)cc4CC[C@H]3[C@@H]1CC[C@H]2O` [17α-estradiol]: in the assay with Ishikawa cells, the EC50 is 1.42 nM.
`C[C@]12CC[C@@H]3c4ccc(O)cc4CC[C@H]3[C@@H]1CC[C@@H]2O` [17β-estradiol] gave a Cholesterol in assay [1] of 95.5 ± 3.9 mg/dL. Besides, in the assay with Ishikawa cells, the “% Activation” value came out at 100% and the EC50 was found to be 0.03 nM.
In the case of `Cc1c(-c2ccc(O)cc2)n(Cc2ccc(OCCN3CCCCCC3)cc2)c2ccc(O)cc12` [Example No. 98, 1-[4-(2-Azepan-1-yl-ethoxy)-benzyl]-2-(4-hydroxy-phenyl)-3-methyl-1H-indol-5-ol], the “% Activation with 1 nM 17β-estradiol” value in the assay with Ishikawa cells was “activity (1% with 1 nM 17β-estradiol)”.
With `Cc1c(-c2ccc(O)cc2)n(Cc2ccc(OCCN(C)C)cc2)c2ccc(O)cc12` [Example No. 100, 2-(4-Hydroxy-phenyl)-3-methyl-1-[4-(2-dimethyl-1-yl-ethoxy)-benzyl]-1H-indol-5-ol], in assay [2], the “Uterine wt mg 100 uG cmpd + 1 uG 17β-estradiol” value stood at 68.7 mg and the “Uterine wt mg 100 uG cmpd” value came to 59.9 mg.
Take `Cc1c(-c2ccccc2)n(Cc2ccc(OCCN3CCCCC3)cc2)c2ccccc12` [compound 85, 4-{3-Methyl-1-[4-(2-piperidin-1-yl-ethoxy)-benzyl]-1H-indole}]: at estrogen receptor [3], the “Infection Luciferase Activity 1 uM + 17β estradiol” value amounted to 43% and the “Infection Luciferase Activity 1 uM” value was −2%. Further, in assay [2], the “Uterine wt mg 100 uG cmpd + 1 uG 17β-estradiol” value is reported as 92.4 mg and the “Uterine wt mg 100 uG cmpd” value came out at 41.1 mg.
For the compound `CCN(CC)CCOc1ccc(Cn2c(-c3ccc(O)cc3)c(C)c3cc(O)ccc32)cc1` [compound 101, 2-(4-Hydroxy-phenyl)-3-methyl-1-[4-(2-diethyl-1-yl-ethoxy)-benzyl]-1H-indol-5-ol], in assay [2], the “Uterine wt mg 100 uG cmpd + 1 uG 17β-estradiol” value is 71.0 mg and the “Uterine wt mg 100 uG cmpd” value was 65.1 mg.
Turning to `Cc1c(-c2ccc(OC3CCCC3)cc2)n(Cc2ccc(OCCN3CCCCC3)cc2)c2ccc(O)cc12` [compound 122, 2-(4-Cyclopenyloxy-phenyl)-3-methyl-1-[4-(2-piperidin-1-yl-ethoxy)-benzyl]-1H-indol-5-ol], the IC50 on estrogen receptor [4] turned out to be 80 nM. Further, on estrogen receptor [3], the “Infection Luciferase Activity 1 uM + 17β estradiol” value was found to be 5% and the “Infection Luciferase Activity 1 uM” value stood at 1%. For the same compound, in assay [2], the “Uterine wt mg 100 uG cmpd + 1 uG 17β-estradiol” value is recorded as 38.7 mg and the “Uterine wt mg 100 uG cmpd” value was 46.7 mg.
For the compound `O=C(c1ccc(OCCN2CCCCC2)cc1)c1c(-c2ccc(O)cc2)sc2cc(O)ccc12` [raloxifene], the “% Activation with 1 nM 17β-estradiol” value in the assay with Ishikawa cells is given as “activity (5% with 1 nM 17β-estradiol)”.
As to `CC/C(=C(\c1ccccc1)c1ccc(OCCN(C)C)cc1)c1ccccc1` [tamoxifen], in assay [2], the “Uterine wt mg 100 uG cmpd” value is reported as 71.4 mg. Moreover, in the assay on Ishikawa cells, the “% Activation with 1 nM 17β-estradiol” value is on record as “activity (45% with 1 nM 17β-estradiol)” and the “% Activation” value is reported as 0%.
